Legend:
[1] = tested on: oligo-1: d(CGCGAATTCGCG)2; test: UV thermal denaturation; type: binding
[2] = tested on: oligo-1: d(CGCGAATTCGCG)2; test: Fluorescence titration; type: binding; details: 20 °C, pH 7.2
[3] = tested on: oligo-2: d(CGATGTACATCG)2; test: Fluorescence titration; type: binding; details: 20 °C, pH 7.2
HEK = test: MTT cytotoxicity assay; type: cell-based; details: Homo sapiens, HEK293, 48 h
CCRF-CEM = test: NCI-60 SRB growth assay; type: cell-based, human
K-562 = test: NCI-60 SRB growth assay; type: cell-based, human
SR = test: NCI-60 SRB growth assay; type: cell-based, human
EKVX = test: NCI-60 SRB growth assay; type: cell-based, human
HOP-62 = test: NCI-60 SRB growth assay; type: cell-based, human; details: HOP-62
HOP-92 = test: NCI-60 SRB growth assay; type: cell-based, human
NCI-H226 = test: NCI-60 SRB growth assay; type: cell-based, human
HCC-2998 = test: NCI-60 SRB growth assay; type: cell-based, human
SW-620 = test: NCI-60 SRB growth assay; type: cell-based, human
SF-268 = test: NCI-60 SRB growth assay; type: cell-based, human
SF-539 = test: NCI-60 SRB growth assay; type: cell-based, human
U251 = test: NCI-60 SRB growth assay; type: cell-based, human
LOX IMVI = test: NCI-60 SRB growth assay; type: cell-based, human
MDA-MB-435 = test: NCI-60 SRB growth assay; type: cell-based, human
SK-MEL-2 = test: NCI-60 SRB growth assay; type: cell-based, human; details: SK-MEL-2
UACC-257 = test: NCI-60 SRB growth assay; type: cell-based, human
UACC-62 = test: NCI-60 SRB growth assay; type: cell-based, human
NCI/ADR-RES = test: NCI-60 SRB growth assay; type: cell-based, human
786-0 = test: NCI-60 SRB growth assay; type: cell-based, human
A498 = test: NCI-60 SRB growth assay; type: cell-based, human
CAKI-1 = test: NCI-60 SRB growth assay; type: cell-based, human
SN12C = test: NCI-60 SRB growth assay; type: cell-based, human
PC-3 = test: NCI-60 SRB growth assay; type: cell-based, human
MCF7 = test: NCI-60 SRB growth assay; type: cell-based, human
MDA-MB-231/ATCC = test: NCI-60 SRB growth assay; type: cell-based, human
HS 578T = test: NCI-60 SRB growth assay; type: cell-based, human
BT-549 = test: NCI-60 SRB growth assay; type: cell-based, human; details: BT-549
MDA-MB-468 = test: NCI-60 SRB growth assay; type: cell-based, human; details: MDA-MB-468
HL-60(TB) = test: cells; details: Homo sapiens
[4] = tested on: panel of 60 human cancer cell lines; test: cells; details: read-out: GI50 concentration range

CCCCN1CCN(c2ccc3[nH]c(-c4ccc5[nH]c(-c6ccc(OCC)c(OCC)c6)nc5c4)nc3c2)CC1 [12a, 5-(4-Butylpiperazin-1-yl)-2-(2-(3,4-diethoxyphenyl)-1H-benzo[d]imidazol-5-yl)-1H-benzo[d]imidazole]
ΔTm ([1]; r = 0.5): 2 °C | Tm ([1]; r = 0.5, oligo 2.5 μM): 56.7 °C | Tm ([1]; r = 1): 57.7 °C | ΔTm ([1]; r = 1): 3 °C | Tm ([1]; r = 1.5): 58.7 °C | ΔTm ([1]; r = 1.5): 4 °C | Tm ([1]; r = 2.0): 61.7 °C | ΔTm ([1]; r = 2.0): 7 °C | Ka binding affinity with oligo-1 [2]: 1 × 10^7 M^–1 | Ka binding affinity with oligo-2 [3]: 4 × 10^6 M^1 | IC50 (HEK): 2700 nM | TGI (CCRF-CEM): 3060 nM | GI50 (CCRF-CEM; Homo sapiens): 530 nM | CC50 (CCRF-CEM; Homo sapiens, read-out: LC50): > 100000 nM | GI50 (K-562; Homo sapiens, K562): 520 nM | CC50 (K-562; Homo sapiens, K562, read-out: LC50): 7530 nM | TGI (K-562; K-562): 2270 nM | TGI (SR): 1190 nM | GI50 (SR; Homo sapiens): 310 nM | CC50 (SR; Homo sapiens, read-out: LC50): > 100000 nM | TGI (EKVX): 3180 nM | GI50 (EKVX; Homo sapiens): 1380 nM | TGI (HOP-62): 3400 nM | GI50 (HOP-62; Homo sapiens): 1810 nM | TGI (HOP-92; HOP-92): 3170 nM | GI50 (HOP-92; Homo sapiens, HOP-92): 1230 nM | CC50 (HOP-92; Homo sapiens, HOP-92, read-out: LC50): 8150 nM | GI50 (NCI-H226; Homo sapiens, NCI-H226): 1290 nM | CC50 (NCI-H226; Homo sapiens, NCI-H226, read-out: LC50): > 100000 nM | TGI (NCI-H226; NCI–H226): 3950 nM | TGI (HCC-2998; HCC-2998): 3220 nM | GI50 (HCC-2998; Homo sapiens, HCC 2998): 1710 nM | GI50 (SW-620; Homo sapiens, SW-620): 470 nM | CC50 (SW-620; Homo sapiens, SW-620, read-out: LC50): 5150 nM | TGI (SW-620; SW620): 1790 nM | GI50 (SF-268; Homo sapiens, SF-268): 2660 nM | CC50 (SF-268; Homo sapiens, SF-268, read-out: LC50): > 100000 nM | TGI (SF-268; SF-268): 22000 nM | GI50 (SF-539; Homo sapiens, SF-539): 1260 nM | CC50 (SF-539; Homo sapiens, SF-539, read-out: LC50): 5200 nM | TGI (SF-539; SF-539): 2560 nM | GI50 (U251; Homo sapiens, U-251): 1280 nM | CC50 (U251; Homo sapiens, U-251, read-out: LC50): 5650 nM | TGI (U251; U251): 2690 nM | TGI (LOX IMVI): 1620 nM | GI50 (LOX IMVI; Homo sapiens): 420 nM | GI50 (MDA-MB-435; Homo sapiens, MDA-MB-435): 1090 nM | CC50 (MDA-MB-435; Homo sapiens, MDA-MB-435, read-out: LC50): 5240 nM | TGI (MDA-MB-435; MDA-MB-435): 2390 nM | GI50 (SK-MEL-2; Homo sapiens): 1680 nM | TGI (SK-MEL-2): 3660 nM | GI50 (UACC-257; Homo sapiens, UACC-257): 1210 nM | CC50 (UACC-257; Homo sapiens, UACC-257, read-out: LC50): > 100000 nM | TGI (UACC-257; UACC-257): 10500 nM | GI50 (UACC-62; Homo sapiens, UACC-62): 680 nM | CC50 (UACC-62; Homo sapiens, UACC-62, read-out: LC50): 5420 nM | TGI (UACC-62; UACC-62): 2180 nM | TGI (NCI/ADR-RES): 100000 nM | GI50 (NCI/ADR-RES; Homo sapiens): 100000 nM | CC50 (NCI/ADR-RES; Homo sapiens, read-out: LC50): > 100000 nM | TGI (786-0; 786–0): 2840 nM | GI50 (786-0; Homo sapiens, 786-0): 1410 nM | CC50 (786-0; Homo sapiens, 786-0, read-out: LC50): 5720 nM | TGI (A498; A498): 2470 nM | GI50 (A498; Homo sapiens, A498): 1180 nM | CC50 (A498; Homo sapiens, A498, read-out: LC50): 5160 nM | TGI (CAKI-1; CAKI-1): 2520 nM | GI50 (CAKI-1; Homo sapiens, CAKI-1): 1040 nM | CC50 (CAKI-1; Homo sapiens, CAKI-1, read-out: LC50): 6120 nM | GI50 (SN12C; Homo sapiens, SN12C): 1030 nM | TGI (SN12C; SN12c): 2610 nM | GI50 (PC-3; Homo sapiens, PC-3): 1080 nM | CC50 (PC-3; Homo sapiens, PC-3, read-out: LC50): 5490 nM | TGI (PC-3; PC-3): 2440 nM | TGI (MCF7): 1420 nM | GI50 (MCF7; Homo sapiens): 190 nM | GI50 (MDA-MB-231/ATCC; Homo sapiens, MDA-MB-231): 1690 nM | CC50 (MDA-MB-231/ATCC; Homo sapiens, MDA-MB-231, read-out: LC50): 6380 nM | TGI (MDA-MB-231/ATCC; MDA-MB-231): 3280 nM | TGI (HS 578T; HS578T): 3900 nM | GI50 (HS 578T; Homo sapiens, Hs-578T): 1540 nM | TGI (BT-549): 3070 nM | GI50 (BT-549; Homo sapiens): 1550 nM | GI50 (MDA-MB-468; Homo sapiens): 1270 nM | TGI (MDA-MB-468): 3090 nM | GI50 (HL-60(TB); HL-60): 700 nM | CC50 (HL-60(TB); HL-60, read-out: LC50): 67900 nM | GI50 [4]: 160 to 3600 nM

Reference: PMC8793051 (ACS Omega, 2022)
